Where a SMILES comes first, the peptide text is derived from it. The star is where a group is joined. Cbz = O=C(OCc1ccccc1)*
Target: 20S proteasome (rat liver) (Rattus norvegicus, UniProt P18421+P28075)
Assay: inhibition of suc-LLVY-AMC hydrolysis
Assay type: biochemical
Conditions: read-out: % inhibition at 10 uM

- inhibition at 10 µM: 90%
Compound: CC(C)C[C@@H](C=O)NC(=O)[C@H](CC(C)C)NC(=O)[C@H](CC(C)C)NC(=O)OCc1ccccc1 [MG-132] (Cbz-Leu-Leu-Leu-aldehyde)

— publication PMC2706308 (Biochimica et biophysica acta, 2009)
